Assay results from patent US20100266503A1, “Breast Cancer Methods, Medicaments and Agents” (priority 2007, published 2010).
Non-standard residues stand in square brackets, D forms with d. Residues, ends and D or L forms follow the SMILES beside them. *: point of attachment. Nle = CCCC[C@H](N)C(=O)O; Cbz = O=C(OCc1ccccc1)*

Tests used:
Format in all cases: cell-based
[1] = test system: MCF-7, T47D, ZR-75-1, MDA-MB-231 and Cal-51 breast cancer cell lines; test: Sulphorhodamine B Assay (SRB) of GSI1 on breast cancer cell lines
Text: Graphs illustrating the effects of GSI1, at different concentrations, on proliferation in five breast cancer cell lines: (A) MCF-7 cells, (B) T47D cells, (C) ZR-75-1 cells, (D) MDA-MB-231 cells and (E) Cal- 51 cells.
The effect of GSI1 on cell proliferation was investigated further in a range of breast cancer cell lines, including both oestrogen receptor positive and negative cell lines, using the Sulphorhodamine B Assay (SRB) to measure cell numbers as illustrated in FIG. 7. […] 6,000 cells were plated in 6 replicates and allowed to adhere overnight. The media was replaced the following day with media containing GSI1 at different concentrations (100 nM, 250 nM, 500 nM, 750 nM, 1 μM, 2 μM, 5 μM, and 10 μM) apart from the control which was media+dimethyl sulphoxide (the solvent for GSI1 at a concentration equal to the highest in the GSI1 treated wells). One plate of cells was subjected to the Sulphorhodamine B Assay (SRB), which […] is an accepted measure of cell numbers, on this day, day 0. Briefly, cells were fixed by adding 100 μl/well of ice-cold 40% Trichloroacetic acid to each well and leaving for 60 mins. Plates were washed 5 times in running tap water (allowing water to fill wells indirectly) and stained with 100 μl/well SRB reagent (0.4% w/v SRB [Sigma-s-9012] in 1% Acetic acid) for 30 mins. Plates were washed 5 times in 1% acetic acid and left overnight to dry before solubilizing with 100 μl/well 10 mM Tris-base. Plates were subject to shaking for 30 mins and absorbance read at 492 nm. The remaining plates were then assayed at 2-day intervals up to day 10. […] Thus, it was evident that irrespective of the cell characteristics that 1 μM and higher concentrations were an effective killing dose and doses as low as 250 nM were inhibitory to cell proliferation.

[2] = test system: L226U19 and L226TS4 cells; test: SRB proliferation of GSI1 on normal L226 cell lines; conditions: tested at 10-80 μM; the two L226 cell lines
Description: Graphs illustrating the effects of GSI1, at different concentrations, on proliferation in four normal cell lines: (A) MCF-10A cells, (B) MCF-10A, (C) L226U19 cells and (D) L226TS4 cells.
The effect of GSI1 on proliferation in normal cell lines was investigated as, illustrated in FIG. 8. […] Therefore we repeated in all 3 normal lines (MCF-10A, L226U19 and L226TS4) at much higher concentrations (10 μM, 20 μM, 40 μM, 60 μM and 80 μM). 10 μM GSI1 was required to kill the MCF-10A cells and over 40 μM GSI1 was required to kill the two L226 cell lines. MCF-10A cells were cultured in DMEM (Invitrogen 11995-040), […] Insulin (Sigma, 11882), 20 ng/ml hEGF (Trevigen, 3443-050-01), 100 ng/ml Cholera Toxin (Sigma, C8052), 500 ng/ml Hydrocortisone (Sigma, H0888), 5% Horse Serum +100U/m1 penicillin, 0.1 mg/ml streptomycin, 2 mM L-glutamine at 37° C. in 5% CO2. L226U19 and TS4 cells were cultured in DME: F12 plus 10% FCS, 5 μg/ml insulin, 1 μg/ml Hydrocortisone, 10 ng/ml hEGF, 10 ng/ml Cholera toxin 100 U/ml penicillin, 0.1 mg/ml streptomycin, 2 mM L-glutamine at 37° C. in 5% CO2.

[3] = test system: CD44 in ZR75-1 and MCF10A cells; test: CD44 immunofluorescence staining after GSI1; conditions: GSI1 750 nM
Text: Stained sections of the breast cancer cell line ZR75-1 (A-D) and the normal cell line (E-H) showing effect of GSI1 on CD44 concentration. Upper sections (A, B, E and F) show cells treated with GSI1. Lower sections (C, D, G and H) show untreated cells. Sections were stained with an anti CD44 primary antibody and a fluorescently labeled secondary antibody to detect CD44. Nuclei were counterstained with DAPI, as shown in panels A, C, E and G.
In order to understand the mechanism of how GS inhibition by GSI1 leads to cell death, we investigated the effect of GS inhibition on CD44 expression which is a substrate for GS and is a cell adhesion molecule. […] The effect of GSI1 on CD44 expression was investigated in one cancer, ZR75-1, and one normal, MCF10A, cell line±GSI1 (at 750 nM i.e. inhibitory dose) (FIG. 9). We used an anti CD44 primary antibody and a fluorescently labelled secondary antibody to detect the CD44. Specifically, the CD44 antibody was a FITC conjugated antibody (BD Biosciences) that was used at a 1:40 dilution. The antibody was incubated for 60 mins at room temperature after fixing in formalin. Nuclei were counterstained with DAPI. […] Thus the inhibitor was not causing the cells to become detached from the plates and die.

MCF-7 cells = test: Annexin V staining after GSI1
Description: (§1) We next did Annexin V staining which is a marker of apoptosis. Cells were treated with GSI1 for 0, 7, 24 and 48 hours. After trypsinizing, the cells were washed with PBS 5 times and then treated with RNAase (100 μg/ml) for 20 mins then propidium iodide was added at 50 μg/ml per 1×10^7 cells, and incubated overnight at 4° C. The samples were then filtered through a 70 μm mesh and run on a FACS with the following settings: Forward scatter 113, side scatter 356 and PE setting 380. Although there was an increase in staining indicating apoptosis, this was only approximately 10%. For example, in MDA-MB-231 cells there was a 5% increase in Annexin V staining after 7 hours of treatment and in T47D and MCF-7 cells there was an 8% increase in Annexin V staining. We have repeated these experiments with full cell cycle analysis at 7, 24 and 48 h post treatment and again detect apoptosis but […]. […] Nevertheless it is likely that cell proliferation is inhibited via another mechanism as opposed to the induction of cellular death.

MDA-MB-231 cells = test: Annexin V staining after GSI1; conditions: after 7 hours of treatment
Description: as §1

T47D cells = test: Annexin V staining after GSI1
Description: as §1

## CCCC[C@@H](C=O)NC(=O)[C@H](CC(C)C)NC(=O)[C@H](CC(C)C)NC(=O)OCc1ccccc1 [GSI1, Z-Leu-Leu-Nle-CHO] (Cbz-Leu-Leu-[Nle]-aldehyde)
[1]; 1 μM, each cell line, assayed up to day 10
  effect of the 1 μM treatment on cell numbers: greatly reduced cell numbers
[1]; irrespective of cell characteristics, up to day 10
  effective killing dose: ≥ 1 µM
[1]; summary statement
  concentration effective at killing / lethal to breast cancer cell lines: 1 µM
[1]; up to day 10
  lowest dose inhibitory to cell proliferation: 250 nM
[2]
  concentration required to kill the cells: over 40 μM
[3]
  CD44 expression: up-regulation of CD44
MCF-7 cells
  increase in Annexin V staining: 8%
MDA-MB-231 cells
  increase in Annexin V staining: 5%
T47D cells
  increase in Annexin V staining: 8%
